According to patent publication US9526680B2, “Method for searching for malodor control agent, malodor control agent, and malodor control method” (Kao Corporation, priority 2010, dated 2016):
Entries after “also recorded” stand apart in the source; their conditions may differ.

Experiments:
OR51E1 = biological target: T1, OR51E1 (Homo sapiens, UniProt Q8TCB6); experiment: Luciferase reporter gene assay, OR51E1 expressed in HEK293 cells; format: cell-based; details: for Response of OR51E1 to the odor substance: fold increase of luciferase emission, 1 mM hexanoic acid or 300 μM nonanoic acid, or concentration series up to 1000 μM
T1 construct: expressed in transfected cells; host or cells: HEK293
T1 sequence (Q8TCB6 1-318): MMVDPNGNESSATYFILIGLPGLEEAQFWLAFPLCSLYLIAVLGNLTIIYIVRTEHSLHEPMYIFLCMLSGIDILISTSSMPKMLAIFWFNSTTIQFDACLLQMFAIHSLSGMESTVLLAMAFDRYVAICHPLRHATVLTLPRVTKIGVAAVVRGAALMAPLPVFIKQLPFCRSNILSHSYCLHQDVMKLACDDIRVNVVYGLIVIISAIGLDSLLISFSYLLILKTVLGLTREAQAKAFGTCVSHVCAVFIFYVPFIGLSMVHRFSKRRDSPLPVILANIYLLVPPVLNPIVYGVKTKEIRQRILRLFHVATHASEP
Procedure: (§1) Cloning of human olfactory receptors was performed based on the sequence information registered in GenBank, through PCR with human genomic DNA female (G1521: Promega) as a template. Each of the genes amplified through PCR was inserted into a pENTR vector (Invitrogen) according to an instruction manual. Then, the gene-inserted vector was digested with NotI and AscI, and the obtained fragments were inserted into NotI and AscI sites located downstream of the Flag-Rho tag sequence in the pME18S vector.
(§2) Each of the 350 types of human olfactory receptors was expressed in HEK293 cells. A reaction solution having a composition shown in Table 2 was prepared on a clean bench, and left to stand for 15 minutes. The solution was dispensed to each well of a 96-well plate (BD). Subsequently, […] cells (100 μL, 3×10^5 cells/cm^2) were seeded in each well and cultured for 24 hours in an incubator at 37° C. and under 5% CO2 conditions.
(§3) The olfactory receptor expressed in HEK293 cell was conjugated with cell-intrinsic Gas to activate adenylate cyclase, and thereby the level of intracellular cAMP was increased. For the measurement of the response to odor in this study, the luciferase reporter gene assay was used, in which an increase in the amount of intracellular cAMP was monitored by using the emission value originating from firefly luciferase gene (fluc2P-CRE-hygro) as an indicator. Furthermore, a gene product obtained by fusing renilla luciferase gene in the downstream of CMV promoter (hRluc-CMV) was simultaneously introduced, and this was used as an internal standard for correcting an error in the transgenesis efficiency or the number of cells. The medium was removed from the culture prepared in the above-described section 3) by using a Pipetman, and 75 μl of a solution containing an odor substance (1 mM hexanoic acid or 300 μM nonanoic acid) prepared in CD293 medium (Invitrogen) was added thereto. The cells were cultured for 4 hours in a CO2 incubator, and the luciferase gene was sufficiently expressed in the cells. For the measurement of luciferase activity, the measurement was carried out by using a Dual-Glo™ luciferase assay system (Promega) according to the operation manual of the product. A value calculated by dividing the emission value, derived from a firefly luciferase induced by the stimulation with an odor substance, by the emission value in cells that were not-stimulated with an odor substance, was designated as a fold increase, and used as an index of response intensity.
(§4) OR2W1, OR10A6, OR51E1, OR51I2, and OR51L1 were respectively expressed in HEK293 cells by the same method as that used in Example 1, and a luciferase assay was carried out. In the luciferase assay, hexanoic acid was used as the odorous substance, and test substances were added together with hexanoic acid. The response of the olfactory receptors to hexanoic acid was measured, and a decrease in the receptor response to the addition of test substances was evaluated.
(§5) The inhibition ratios of the receptor response to test substances were calculated as follows. The emission value (Y) obtained from the cells in which the same receptors were introduced but no odor stimulation was conducted, was subtracted from the emission value derived from firefly luciferase (X) induced by odor stimulation with hexanoic acid alone. Similarly, the emission value (Y) obtained from the cells in which no odor stimulation was conducted, was subtracted from the emission value (Z) caused by stimulation with a mixture of hexanoic acid and a test substance. By the following calculation formula, the inhibitory activity of the test substance to receptor response was calculated based on the increment of the emission value (X−Y) caused by stimulation of hexanoic acid alone. Multiple independent experiments were performed in duplicate, and the average of each experiment was obtained. Inhibition ratio (%)={1−(Z−Y)/(X−Y)}×100 […]

OR2W1 = biological target: T2, OR2W1 (Homo sapiens, UniProt Q9Y3N9); experiment: Luciferase reporter gene assay, OR2W1 expressed in HEK293 cells; format: cell-based; details: for Response of OR2W1 to the odor substance: fold increase of luciferase emission, 1 mM hexanoic acid or 300 μM nonanoic acid, or concentration series up to 1000 μM
T2 construct: expressed in transfected cells; host or cells: HEK293
T2 sequence (Q9Y3N9 1-320): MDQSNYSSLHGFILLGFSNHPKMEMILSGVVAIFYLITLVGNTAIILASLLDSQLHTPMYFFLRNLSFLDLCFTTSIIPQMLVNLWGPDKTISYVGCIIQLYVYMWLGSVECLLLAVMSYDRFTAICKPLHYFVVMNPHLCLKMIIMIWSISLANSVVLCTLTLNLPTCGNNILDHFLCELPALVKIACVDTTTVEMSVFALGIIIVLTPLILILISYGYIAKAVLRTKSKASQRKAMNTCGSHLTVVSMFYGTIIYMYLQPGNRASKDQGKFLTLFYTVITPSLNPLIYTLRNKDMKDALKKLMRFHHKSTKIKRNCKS
Procedure: as §1, §2, §3, §4, §5

OR10A6 = biological target: T3, OR10A6 (Homo sapiens, UniProt Q8NH74); experiment: Luciferase reporter gene assay, OR10A6 expressed in HEK293 cells; format: cell-based; details: for Response of OR10A6 to the odor substance: fold increase of luciferase emission, 1 mM hexanoic acid or 300 μM nonanoic acid, or concentration series up to 1000 μM; for Inhibition ratio of OR10A6 response: response to hexanoic acid, test substance added together with hexanoic acid, HEK293
T3 construct: expressed in transfected cells; host or cells: HEK293
T3 sequence (Q8NH74 1-314): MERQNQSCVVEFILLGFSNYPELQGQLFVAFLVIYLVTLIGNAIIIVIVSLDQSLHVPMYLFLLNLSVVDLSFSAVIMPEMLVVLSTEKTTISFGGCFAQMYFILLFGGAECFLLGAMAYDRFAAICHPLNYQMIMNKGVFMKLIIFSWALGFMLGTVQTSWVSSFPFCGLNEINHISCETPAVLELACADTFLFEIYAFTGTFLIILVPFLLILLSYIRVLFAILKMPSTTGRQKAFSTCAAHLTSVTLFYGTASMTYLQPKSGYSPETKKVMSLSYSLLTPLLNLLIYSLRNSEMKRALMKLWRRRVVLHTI
Procedure: as §1, §2, §3, §4
The inhibition ratios of the receptor response to test substances were calculated as follows. The emission value (Y) obtained from the cells in which the same receptors were introduced but no odor stimulation was conducted, was subtracted from the emission value derived from firefly luciferase (X) induced by odor stimulation with hexanoic acid alone. Similarly, the emission value (Y) obtained from the cells in which no odor stimulation was conducted, was subtracted from the emission value (Z) caused by stimulation with a mixture of hexanoic acid and a test substance. By the following calculation formula, the inhibitory activity of the test substance to receptor response was calculated based on the increment of the emission value (X−Y) caused by stimulation of hexanoic acid alone. Multiple independent experiments were performed in duplicate, and the average of each experiment was obtained. Inhibition ratio (%)={1−(Z−Y)/(X−Y)}×100

OR51I2 = biological target: T4, OR51I2 (Homo sapiens, UniProt Q9H344); experiment: Luciferase reporter gene assay, OR51I2 expressed in HEK293 cells; format: cell-based; details: for Response of OR51I2 to the odor substance: fold increase of luciferase emission, 1 mM hexanoic acid or 300 μM nonanoic acid, or concentration series up to 1000 μM
T4 construct: expressed in transfected cells; host or cells: HEK293
T4 sequence (Q9H344 1-312): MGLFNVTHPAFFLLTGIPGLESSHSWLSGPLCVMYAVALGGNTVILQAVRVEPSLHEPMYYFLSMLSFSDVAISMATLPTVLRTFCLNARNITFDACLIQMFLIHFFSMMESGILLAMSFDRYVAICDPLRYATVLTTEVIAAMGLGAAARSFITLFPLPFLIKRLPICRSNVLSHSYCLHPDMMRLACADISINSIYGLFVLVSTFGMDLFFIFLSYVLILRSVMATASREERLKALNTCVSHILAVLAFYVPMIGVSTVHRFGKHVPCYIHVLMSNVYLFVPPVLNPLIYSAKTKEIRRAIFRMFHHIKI
Procedure: as §1, §2, §3, §4, §5

OR51L1 = biological target: T5, OR51L1 (Homo sapiens, UniProt Q8NGJ5); experiment: Luciferase reporter gene assay, OR51L1 expressed in HEK293 cells; format: cell-based; details: for Response of OR51L1 to the odor substance: fold increase of luciferase emission, 1 mM hexanoic acid or 300 μM nonanoic acid, or concentration series up to 1000 μM
T5 construct: expressed in transfected cells; host or cells: HEK293
T5 sequence (Q8NGJ5 1-315): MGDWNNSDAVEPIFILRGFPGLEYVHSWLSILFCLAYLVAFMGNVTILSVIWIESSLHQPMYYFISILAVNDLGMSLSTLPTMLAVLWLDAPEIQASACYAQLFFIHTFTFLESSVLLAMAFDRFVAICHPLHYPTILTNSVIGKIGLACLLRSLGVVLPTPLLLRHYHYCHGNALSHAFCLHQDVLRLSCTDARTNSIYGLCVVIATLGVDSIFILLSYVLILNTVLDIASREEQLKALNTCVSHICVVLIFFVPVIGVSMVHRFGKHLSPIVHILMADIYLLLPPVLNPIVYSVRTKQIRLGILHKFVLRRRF
Procedure: as §1, §2, §3, §4, §5

[1] = Sensory evaluation test of hexanoic acid odor inhibition; format: in vivo
Procedure: Cotton balls were introduced into a glass bottle (Hakuyo Glass Co., Ltd. No. 11, capacity 110 ml), and hexanoic acid diluted 100 times with propylene glycol, nonanoic acid diluted 10 times with propylene glycol, or isovaleric acid diluted 1000 times with propylene glycol, as a malodor, and a test substance were added dropwise in an amount of […] to the cotton balls. The glass bottle was left to stand overnight at room temperature, and the odor molecules were sufficiently volatilized in the glass bottle. A sensory evaluation test was carried out by a panel of three panelists (5 panelists for isovaleric acid), and while the intensity of odor in the case of adding dropwise the malodor alone was rated as 5, the intensity of the malodor in the case of incorporating a test substance was evaluated on the basis of a system of 20 grades from 0 point to 10 points (0.5 points per grade).
Regarding the test substance, florhydral (Givaudan SA), bourgeonal (Givaudan SA), hydroxycitronellal (Givaudan SA, International Flavors & Fragrances, Inc., and the like), 4-isopropylcyclohexanecarbaldehyde (synthesized according to a method described in JP-A-2-188549), 4-(2-methoxyphenyl)-2-methyl-2-butanol (JP-A-9-111281), florosa (Givaudan SA), isocyclocitral (Givaudan SA, International Flavors & Fragrances, Inc., and the like), tripral (International Flavors & Fragrances, Inc.), and Pollenal II (Kao Corp.), which had been diluted 100 times with propylene glycol, were used for hexanoic acid; florhydral that had been diluted 10 times with propylene glycol was used for nonanoic acid; and florhydral that had been diluted 1000 times with propylene glycol was used for isovaleric acid.

[2] = 1 mM hexanoic acid, test substance 3, 10, 30, 100, 300 μM (FIG. 4)

| Inhibition ratio of OR10A6 response (OR10A6) | Molecule | Response of OR51E1 to the odor substance (OR51E1) | Response of OR2W1 to the odor substance (OR2W1) | Response of OR10A6 to the odor substance (OR10A6) | Response of OR51I2 to the odor substance (OR51I2) | Response of OR51L1 to the odor substance (OR51L1) | further results |
| --- | --- | --- | --- | --- | --- | --- | --- |
| – | CCCCCCCCC(=O)O [nonanoic acid, reference compound] | exhibited response | exhibited response | exhibited response | – | – | – |
| – | cresol [reference compound] | do not respond | do not respond | do not respond | do not respond | do not respond | – |
| – | CCCCCC(=O)O [hexanoic acid, reference compound] | exhibited response; also recorded: concentration-dependent response | exhibited response; also recorded: concentration-dependent response | exhibited response; also recorded: concentration-dependent response | exhibited response; also recorded: concentration-dependent response | exhibited response; also recorded: concentration-dependent response | – |
| 2 (Inhibition ratio: 20% to 50%) | CC(C)CC1CC(C)(O)CCO1 (stereo not shown) [Florosa, tetrahydro-4-methyl-2-(2-methylpropyl)-2H-pyran-4-ol] | – | – | – | – | – | Intensity of odor ([1]; hexanoic acid odor, malodor alone rated as 5, 0 to 10 points, test substance diluted 100 times with propylene glycol, three panelists): 3.38; Inhibition of hexanoic acid odor (in words) ([1]; sensory test, test substance diluted 100 times with propylene glycol (FIG. 5, Table 4)): inhibit the hexanoic acid odor |
| – | CC1=CC(C)C(CO)CC1 (stereo not shown) [floralol, reference compound] | – | – | – | – | – | Inhibition of OR51E1 response to hexanoic acid (in words) (OR51E1; [2]): no response inhibiting effect; Inhibition of OR2W1 response to hexanoic acid (in words) (OR2W1; [2]): no response inhibiting effect; Inhibition of OR10A6 response (in words) (OR10A6): no response inhibiting effect; Inhibition of OR51I2 response to hexanoic acid (in words) (OR51I2; [2]): no response inhibiting effect; Inhibition of OR51L1 response to hexanoic acid (in words) (OR51L1; [2]): no response inhibiting effect |
| 1 (Inhibition ratio: 50% or higher) | CC(C)C1CCC(C)(C=O)CC1 (stereo not shown) [4-isopropyl-1-methylcyclohexanecarbaldehyde] | – | – | – | – | – | – |
